Assay results taken from patent US6902926B1, “Toxoplasma gondii apical membrane antigen-1” (priority 2000, dated 2005).

System: secretion of the 53-kDa fragment of TgAMA-1
Assay: Secretion assay: TgAMA-1 released from tachyzoites into culture supernatant, by western blot
Format: cell-based, Toxoplasma gondii
Settings: for secretion of the 53-kDa fragment of TgAMA-1: 2-min treatment at 37° C.
Method: Tachyzoites (2F strain, constitutively expressing cytoplasmic β-galactosidase [generous gift of David Sibley]) were washed twice in DMEM+20 mM HEPES, pH 7.0 (4 min, 1000×g, 23° C.), and resuspended in 4 ml polystyrene round bottom tubes at a concentration of 2×10^8 tachyzoites/ml. The suspension was incubated for various times at 37° C. or treated for 15 min at 23° C. with either 1.0% (v/v) DMSO or 20 μM BAPTA-AM (1.0% [v/v] DMSO final), followed by 2 min at 37° C. with 200 nM A23187 (1.0% [v/v] DMSO final) or 1.0% ethanol. Cells were pelleted (4 min, 1000×g, 4° C.) and dissolved in SDS-PAGE sample buffer. Supernatants were recentrifuged (4 min, 1000×g, 4° C.) and dissolved in sample buffer. The samples were incubated for 10 min at 100° C. and analyzed by SDS-PAGE/western blotting. Gels to be probed with either Mab B3.90 or antipeptide antiserum UVT59 were run under non-reducing conditions; blots to be probed with Mab 6D10 were run under reducing conditions. The extent of parasite lysis was determined by measuring the levels of β-galactosidase in the supernatant, as previously described.

SMILES: CNc1ccc2oc(C[C@H]3O[C@@]4(CC[C@H]3C)O[C@H]([C@H](C)C(=O)c3ccc[nH]3)[C@H](C)C[C@H]4C)nc2c1C(=O)O [A23187]
- secretion of the 53-kDa fragment of TgAMA-1: dramatically enhanced

SMILES: CC(=O)OCOC(=O)CN(CC(=O)OCOC(C)=O)c1ccccc1OCCOc1ccccc1N(CC(=O)OCOC(C)=O)CC(=O)OCOC(C)=O [BAPTA-AM]
- effect of pretreatment on ethanol/A23187-enhanced secretion of the 53-kDa fragment (pretreating the parasites before ethanol or A23187): abrogated

SMILES: CCO [ethanol]
- secretion of the 53-kDa fragment of TgAMA-1: dramatically enhanced
